The target of assay [1] is GDP-bound KRAS protein (aa 1-169), G12D and C118A; SOS-mediated nucleotide exchange (Homo sapiens (Human), UniProt P01116, C118A/G12D). In words: KRAS G12D Coupled Nucleotide Exchange Assay. In kind it is biochemical. Particulars: 2 h compound pre-incubation, GTP, cRAF AlphaScreen. The procedure, abridged: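 GDP-loaded KRAS (aa 1-169, G12D/C118A, N-His) preincubated 2 h with titrated compound in pH 7.4 HEPES/MgCl2/Triton buffer. SOS (aa 564-1049) plus GTP then added for 30 min. AlphaScreen readout; IC50 from 4-parameter logistic fit.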
Chain of GDP-bound KRAS protein (aa 1-169), G12D and C118A; SOS-mediated nucleotide exchange (P01116 other isoform, or with tags, fused parts or gaps G12D/C118A): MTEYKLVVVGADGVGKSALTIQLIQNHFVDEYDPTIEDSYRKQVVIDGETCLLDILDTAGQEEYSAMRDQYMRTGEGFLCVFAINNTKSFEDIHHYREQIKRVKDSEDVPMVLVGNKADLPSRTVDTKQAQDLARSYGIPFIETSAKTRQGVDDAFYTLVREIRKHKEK

Assay [2] addresses His-tagged KRAS G12D protein (Homo sapiens (Human), UniProt P01116, G12D). As to the kind of experiment: KRAS G12D TR-FRET Assay. In kind it is binding. Particulars: biotinylated KRPep-2d, 10 μM GDP. Put shortly: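 His-KRAS G12D (20 nM working solution) preincubated with compound 30 min at rt in HEPES pH 7.4 buffer with 10 μM GDP, then biotinylated KRPep-2d added for 1 h. Eu-anti-His/streptavidin-d2 TR-FRET 665/615 ratio; IC50 from 4-parameter logistic fit.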
A general note: In TR-FRET formats the signal depends on donor and acceptor labels being close together.

Assay [3] relates to Phosphorylation of ERK1/2 in AsPC-1 cells. As to the kind of experiment: Phospho-ERK1/2 MSD Assay. In kind it is cell-based. Put shortly:
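AsPC-1 cells in 10% FBS RPMI 1640 were treated with a compound dose titration for 2 h at 37° C, then lysed in RIPA buffer with protease and phosphatase inhibitors. Phospho-ERK1/2 was measured by MSD whole-cell lysate immunoassay, and IC50 was derived by 4-parameter logistic fit.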

[4] abbreviates: Homo sapiens, ASPC1, 2 h, read-out: 2 h p-ERK (AsPC-1 cells), IC50 (μM), AsPC-1 cells, 2 h compound treatment.
[5] abbreviates: read-out: 2 h p-ERK (AsPC-1 cells), IC50, AsPC-1 cells, 2 h compound treatment.

IC50 data for nine compounds are collected here from patent US20250163064A1, “QUINAZOLINE COMPOUNDS AND USES THEREOF AS INHIBITORS OF MUTANT KRAS PROTEINS” (AMGEN INC., priority 2022, published 2025).

Read-outs that look alike come from different tables or passages of the source.

In general, IC50 refers to the concentration at which inhibition is half-maximal.

Chain of His-tagged KRAS G12D protein (P01116-2 other isoform, or with tags, fused parts or gaps G12D): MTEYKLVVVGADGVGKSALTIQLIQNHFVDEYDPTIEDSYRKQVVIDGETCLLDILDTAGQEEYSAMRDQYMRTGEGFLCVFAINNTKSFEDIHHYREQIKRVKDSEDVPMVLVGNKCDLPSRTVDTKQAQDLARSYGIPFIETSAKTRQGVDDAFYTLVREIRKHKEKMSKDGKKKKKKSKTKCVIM

On to `C[C@@]1(CO)CCCN(c2nc(OC[C@@]34CCCN3C[C@H](F)C4)nc3c(F)c(-c4ccc(F)c5sc(N)c(C#N)c45)c(Cl)cc23)C1` [Example 43, 2-Amino-4-(6-chloro-8-fluoro-2-(((2R,7aS)-2-fluorotetrahydro-1H-pyrrolizin-7a(5H)-yl)methoxy)-4-((R)-3-(hydroxymethyl)-3-methylpiperidin-1-yl)quinazolin-7-yl)-7-fluorobenzo[b] thiophene-3-carbonitrile], for which the IC50 in assay [1] is 0.018 µM; in assay [2] it was 0.015 µM; in assay [3] (setting [4]), 1.16 µM.
Regarding `C[C@@H]1CCCN1c1nc(OC[C@@]23CCCN2C[C@H](F)C3)nc2c(F)c(-c3ccc(F)c4sc(N)c(C#N)c34)c(Cl)cc12` [Example 66, 2-Amino-4-(6-chloro-8-fluoro-2-(((2R,7aS)-2-fluorotetrahydro-1H-pyrrolizin-7a(5H)-yl)methoxy)-4-((R)-2-methylpyrrolidin-1-yl)quinazolin-7-yl)-7-fluorobenzo[b] thiophene-3-carbonitrile], the IC50 in assay [1] was 0.016 µM; in assay [2], 0.024 µM; in assay [3] (setting [4]), 0.586 µM.
The matching figures for `N#Cc1c(N)sc2c(F)ccc(-c3c(Cl)cc4c(N5CCCOCC5)nc(OC[C@@]56CCCN5C[C@H](F)C6)nc4c3F)c12` [Example 55, 2-Amino-4-(6-chloro-8-fluoro-2-(((2R,7aS)-2-fluorotetrahydro-1H-pyrrolizin-7a(5H)-yl)methoxy)-4-(1,4-oxazepan-4-yl)quinazolin-7-yl)-7-fluorobenzo[b]thiophene-3-carbonitrile]: 0.008 µM, 0.005 µM and 0.102 µM.
The matching figures for `N#Cc1c(N)sc2c(F)ccc(-c3c(Cl)cc4c(N5CC6COC(C6)C5)nc(OC[C@@]56CCCN5C[C@H](F)C6)nc4c3F)c12` (stereo partly drawn) [Example 33, 4-(4-(6-Oxa-3-azabicyclo[3.2.1]octan-3-yl)-6-chloro-8-fluoro-2-(((2R,7aS)-2-fluorotetrahydro-1H-pyrrolizin-7a(5H)-yl)methoxy)quinazolin-7-yl)-2-amino-7-fluorobenzo[b] thiophene-3-carbonitrile]: 0.003 µM, 0.003 µM and 0.285 µM.
With `N#Cc1c(N)sc2c(F)ccc(-c3c(Cl)cc4c(N5CCC6CCC(C5)O6)nc(OC[C@@]56CCCN5C[C@H](F)C6)nc4c3F)c12` (stereo partly drawn) [Example 21], the IC50 was 0.008 µM in assay [1], 0.01 µM in assay [2] and 0.532 µM in assay [3] (setting [4]).
Taken in the same sequence, the figures for `N#Cc1c(N)sc2c(F)ccc(-c3c(Cl)cc4c(N5CCCS(=O)(=O)CC5)nc(OC[C@@]56CCCN5C[C@H](F)C6)nc4c3F)c12` [Example 25, 2-Amino-4-(6-chloro-4-(1,1-dioxido-1,4-thiazepan-4-yl)-8-fluoro-2-(((2R,7aS)-2-fluorotetrahydro-1H-pyrrolizin-7a(5H)-yl)methoxy)quinazolin-7-yl)-7-fluorobenzo[b] thiophene-3-carbonitrile] were 0.003 µM, 0.003 µM and 0.492 µM.
As for `CC1(O)COCCN(c2nc(OC[C@@]34CCCN3C[C@H](F)C4)nc3c(F)c(-c4ccc(F)c5sc(N)c(C#N)c45)c(O)cc23)C1` (stereo partly drawn) [Example 63, 2-Amino-7-fluoro-4-(8-fluoro-2-(((2R,7aS)-2-fluorotetrahydro-1H-pyrrolizin-7a (H)-yl)methoxy)-6-hydroxy-4-(6-hydroxy-6-methyl-1,4-oxazepan-4-yl)quinazolin-7-yl)benzo[b]thiophene-3-carbonitrile], the IC50 in assay [1] was 0.003 µM; in assay [2] it was 0.004 µM; in assay [3] (setting [5]) it was over 10 µM.
Take `N#Cc1c(N)sc2c(F)ccc(-c3c(Cl)cc4c(N5CCCCC(C#N)C5)nc(OC[C@@]56CCCN5C[C@H](F)C6)nc4c3F)c12` (stereo partly drawn) [Example 57, 1-(7-(2-Amino-3-cyano-7-fluorobenzo[b]thiophen-4-yl)-6-chloro-8-fluoro-2-(((2R,7aS)-2-fluorotetrahydro-1H-pyrrolizin-7a(5H)-yl)methoxy)quinazolin-4-yl)azepane-3-carbonitrile]: the IC50 in assay [1] was determined as 0.003 µM; in assay [2] it was 0.003 µM; in assay [3] (setting [4]), 0.061 µM.
For `CCc1cc2c(N3CCOCC(C)(O)C3)nc(OC[C@@]34CCCN3C[C@H](F)C4)nc2c(F)c1-c1ccc(F)c2sc(N)c(C#N)c12` (stereo partly drawn) [Example 62, 2-Amino-4-(6-ethyl-8-fluoro-2-(((2R,7aS)-2-fluorotetrahydro-1H-pyrrolizin-7a(H)-yl)methoxy)-4-(6-hydroxy-6-methyl-1,4-oxazepan-4-yl)quinazolin-7-yl)-7-fluorobenzo[b]thiophene-3-carbonitrile], the IC50 is 0.001 µM in assay [1], 0.003 µM in assay [2] and 0.025 µM in assay [3] (setting [5]).
